Measurements reported in PMC11199504, “New hemisynthetic derivatives of sphaeropsidin phytotoxins triggering severe endoplasmic reticulum swelling in cancer cells” (Scientific Reports, 2024).
Where two headings read alike, the source gives them in different places. Each block holds one molecule with its values, some of them ahead of it.

Legend:
[1] = system: A549; parameters: method as in doi:10.1016/j.phytol.2012.08.011; details: 72 h treatment; read-out: IC50 determined by MTT assays, A549; cited from earlier work
[2] = system: SKMEL-28; parameters: method as in doi:10.1016/j.phytol.2012.08.011; details: 72 h treatment; read-out: IC50 determined by MTT assays, SKMEL-28; cited from earlier work
[3] = system: U373; parameters: method as in doi:10.1016/j.phytol.2012.08.011; details: 72 h treatment; read-out: IC50 determined by MTT assays, U373; cited from earlier work
[4] = system: Hs683; parameters: method as in doi:10.1016/j.phytol.2012.08.011; details: 72 h treatment; read-out: IC50 determined by MTT assays, Hs683; cited from earlier work
[5] = system: B16F10; parameters: method as in doi:10.1016/j.phytol.2012.08.011; details: 72 h treatment; read-out: IC50 determined by MTT assays, B16F10; cited from earlier work
[6] = system: A549, SKMEL-28, U373, MCF7, Hs683, B16F10; parameters: method as in doi:10.1016/j.phytol.2012.08.011; details: mean over cell lines (MCF7 not available); read-out: IC50 determined by MTT assays, Mean; cited from earlier work
[7] = system: A549; experiment: MTT colorimetric assay, A549; type: cell-based; details: Homo sapiens, 72 h treatment, mean ± SEM of six replicates of one experiment (1: 7, 13: 6 independent experiments), resistant to apoptosis, read-out: IC50 determined by MTT assays, A549
From the text: (§1) Cancer cell lines were obtained from either the European Collection of Cell Cultures (ECACC; Salisbury, UK) or the American Type Culture Collection (ATCC; Manassas, VA). The two glioma cell lines were the U373 (ECACC code 08061901) and Hs683 (ATCC HTB-138) cell lines. The carcinoma cell lines were the A549 non-small cell carcinoma cell line (ATCC code CCL 185) and the MCF-7 mammary breast carcinoma cell line (ATCC code HTB-22). The melanoma cell lines were the mouse B16F10 cells (ATCC code CRL-6475) and the human SKMEL-28 cells (ATCC code HTB-72). The ovarian cancer cell line A2780 and its cisplatin-resistant subline A2780cis were obtained from Sigma-Aldrich (St. Louis, MO, USA). Colon cancer HCT116 cells were obtained from ATCC (CCL-247) and the oxaliplatin-resistant subline HCT116/OxR established in the W. Berger lab[59]. The HeLa cell derivative KB-3-1 and the colchicine-selected, highly ABCB1-overexpressing subline KB-C-1 were generously donated by Dr. D. W. Shen, Bethesda, MD. RKOp53wt colon cancer cells together with the RKOp53KO (homozygous knock-out) subline[60] were generously provided by Dr. Vogelstein from John Hopkins University, Baltimore. The correct origin of all cell models was confirmed by STR during performance of the experiments. All cell lines were cultured in RPMI1640 culture medium supplemented with 10% heat-inactivated fetal bovine serum, 2% L-glutamine (0.6 mg/mL), 2% penicillin/streptomycin (200 IU/mL and 200 μg/mL) and 0.1 mg/mL gentamicin.
(§2) The MTT (3-(4,5-dimethylthiazol-2-yl)-2,5-diphenyl tetrazolium bromide) colorimetric assay has been conducted as described previously. Briefly, cells were seeded 24 h before their treatment with each compound for a period of 72 h. The concentrations tested ranged from 10 nM to 100 µM. Each assay was conducted in sextuplicates. The number of independent experiments is mentioned in the legend of the tables.

[8] = system: SKMEL-28; experiment: MTT colorimetric assay, SKMEL-28; type: cell-based; details: Homo sapiens, SK-MEL-28; 72 h treatment; mean ± SEM; resistant to apoptosis; read-out: IC50 determined by MTT assays, SKMEL-28
From the text: as §1, §2

[9] = system: U373; experiment: MTT colorimetric assay, U373; type: cell-based; details: Homo sapiens, U373 MG; 72 h treatment; mean ± SEM; resistant to apoptosis; read-out: IC50 determined by MTT assays, U373
From the text: as §1, §2

[10] = system: MCF7; experiment: MTT colorimetric assay, MCF7; type: cell-based; details: Homo sapiens, 72 h treatment, mean ± SEM, sensitive to apoptosis, read-out: IC50 determined by MTT assays, MCF7
From the text: as §1, §2

[11] = system: Hs683; experiment: MTT colorimetric assay, Hs683; type: cell-based; details: Homo sapiens, Hs 683; 72 h treatment; mean ± SEM; sensitive to apoptosis; read-out: IC50 determined by MTT assays, Hs683
From the text: as §1, §2

[12] = system: B16F10; experiment: MTT colorimetric assay, B16F10; type: cell-based; details: Mus musculus, B16-F10; 72 h treatment; mean ± SEM; sensitive to apoptosis; read-out: IC50 determined by MTT assays, B16F10
From the text: as §1, §2

[13] = system: A549, SKMEL-28, U373, MCF7, Hs683, B16F10; experiment: MTT colorimetric assay, mean of the six cell lines; type: cell-based; details: 72 h, mean over the six cell lines; 72 h treatment; read-out: IC50 determined by MTT assays, Mean
From the text: as §1, §2

[14] = system: A2780; experiment: MTT assay, A2780 (parental sensitive); type: cell-based; details: Homo sapiens, A2780; 72 h treatment; ± standard deviation; parental sensitive model; read-out: IC50 determined by MTT assays, A2780
From the text: as §1, §2
(§3) SI Table 1: IC50 determined by MTT assays. Mean concentration (± standard deviation) in µM required to
(§4) reduce the viability of cells by 50% after a 72 h treatment relative to the control.
(§5) Parental sensitive models Drug-resistant models

[15] = system: Hct116; experiment: MTT assay, Hct116 (parental sensitive); type: cell-based; details: Homo sapiens, HCT-116; 72 h treatment; ± standard deviation; parental sensitive model; read-out: IC50 determined by MTT assays, Hct116
From the text: as §1, §2, §3, §4, §5

[16] = system: RKO/P53wt; experiment: MTT assay, RKO/P53wt (parental sensitive); type: cell-based; details: 72 h treatment; ± standard deviation; parental sensitive model; read-out: IC50 determined by MTT assays, RKO/P53wt
From the text: as §1, §2, §3, §4, §5

[17] = system: KB-3-1; experiment: MTT assay, KB-3-1 (parental sensitive); type: cell-based; details: Homo sapiens, KB 3-1; 72 h treatment; ± standard deviation; parental sensitive model; read-out: IC50 determined by MTT assays, KB-3-1
From the text: as §1, §2, §3, §4, §5

[18] = system: Parental sensitive models; experiment: MTT assay, mean of parental sensitive models; type: cell-based; details: 72 h treatment; read-out: IC50 determined by MTT assays, mean of parental sensitive models
From the text: as §1, §2, §3, §4, §5

[19] = system: A2780R; experiment: MTT assay, A2780R (cisplatin-resistant); type: cell-based; details: 72 h treatment; ± standard deviation; drug-resistant model; read-out: IC50 determined by MTT assays, A2780R
From the text: as §1, §2, §3, §4, §5

[20] = system: Hct116/OxR; experiment: MTT assay, Hct116/OxR (oxaliplatin-resistant); type: cell-based; details: Homo sapiens, HCT-116; 72 h treatment; ± standard deviation; drug-resistant model; read-out: IC50 determined by MTT assays, Hct116/OxR
From the text: as §1, §2, §3, §4, §5

[21] = system: RKO/p53ko; experiment: MTT assay, RKO/p53ko; type: cell-based; details: 72 h treatment; ± standard deviation; drug-resistant model; read-out: IC50 determined by MTT assays, RKO/p53ko
From the text: as §1, §2, §3, §4, §5

[22] = system: KB-C-1; experiment: MTT assay, KB-C-1 (ABCB1-overexpressing); type: cell-based; details: KBC-1; 72 h treatment; ± standard deviation; drug-resistant model; read-out: IC50 determined by MTT assays, KB-C-1
From the text: as §1, §2, §3, §4, §5

[23] = system: Drug-resistant models; experiment: MTT assay, mean of drug-resistant models; type: cell-based; details: 72 h treatment; read-out: IC50 determined by MTT assays, mean of drug-resistant models
From the text: as §1, §2, §3, §4, §5

[24] = target: T1, human TopIIa (Homo sapiens, UniProt P11388); experiment: Cell-free decatenation assay; type: biochemical; details: at 500 µM, read-out: TopoIIa inhibition
T1 construct: purchased TopoGen (Port Orange, FL, USA)
T1 sequence (P11388 whole entry): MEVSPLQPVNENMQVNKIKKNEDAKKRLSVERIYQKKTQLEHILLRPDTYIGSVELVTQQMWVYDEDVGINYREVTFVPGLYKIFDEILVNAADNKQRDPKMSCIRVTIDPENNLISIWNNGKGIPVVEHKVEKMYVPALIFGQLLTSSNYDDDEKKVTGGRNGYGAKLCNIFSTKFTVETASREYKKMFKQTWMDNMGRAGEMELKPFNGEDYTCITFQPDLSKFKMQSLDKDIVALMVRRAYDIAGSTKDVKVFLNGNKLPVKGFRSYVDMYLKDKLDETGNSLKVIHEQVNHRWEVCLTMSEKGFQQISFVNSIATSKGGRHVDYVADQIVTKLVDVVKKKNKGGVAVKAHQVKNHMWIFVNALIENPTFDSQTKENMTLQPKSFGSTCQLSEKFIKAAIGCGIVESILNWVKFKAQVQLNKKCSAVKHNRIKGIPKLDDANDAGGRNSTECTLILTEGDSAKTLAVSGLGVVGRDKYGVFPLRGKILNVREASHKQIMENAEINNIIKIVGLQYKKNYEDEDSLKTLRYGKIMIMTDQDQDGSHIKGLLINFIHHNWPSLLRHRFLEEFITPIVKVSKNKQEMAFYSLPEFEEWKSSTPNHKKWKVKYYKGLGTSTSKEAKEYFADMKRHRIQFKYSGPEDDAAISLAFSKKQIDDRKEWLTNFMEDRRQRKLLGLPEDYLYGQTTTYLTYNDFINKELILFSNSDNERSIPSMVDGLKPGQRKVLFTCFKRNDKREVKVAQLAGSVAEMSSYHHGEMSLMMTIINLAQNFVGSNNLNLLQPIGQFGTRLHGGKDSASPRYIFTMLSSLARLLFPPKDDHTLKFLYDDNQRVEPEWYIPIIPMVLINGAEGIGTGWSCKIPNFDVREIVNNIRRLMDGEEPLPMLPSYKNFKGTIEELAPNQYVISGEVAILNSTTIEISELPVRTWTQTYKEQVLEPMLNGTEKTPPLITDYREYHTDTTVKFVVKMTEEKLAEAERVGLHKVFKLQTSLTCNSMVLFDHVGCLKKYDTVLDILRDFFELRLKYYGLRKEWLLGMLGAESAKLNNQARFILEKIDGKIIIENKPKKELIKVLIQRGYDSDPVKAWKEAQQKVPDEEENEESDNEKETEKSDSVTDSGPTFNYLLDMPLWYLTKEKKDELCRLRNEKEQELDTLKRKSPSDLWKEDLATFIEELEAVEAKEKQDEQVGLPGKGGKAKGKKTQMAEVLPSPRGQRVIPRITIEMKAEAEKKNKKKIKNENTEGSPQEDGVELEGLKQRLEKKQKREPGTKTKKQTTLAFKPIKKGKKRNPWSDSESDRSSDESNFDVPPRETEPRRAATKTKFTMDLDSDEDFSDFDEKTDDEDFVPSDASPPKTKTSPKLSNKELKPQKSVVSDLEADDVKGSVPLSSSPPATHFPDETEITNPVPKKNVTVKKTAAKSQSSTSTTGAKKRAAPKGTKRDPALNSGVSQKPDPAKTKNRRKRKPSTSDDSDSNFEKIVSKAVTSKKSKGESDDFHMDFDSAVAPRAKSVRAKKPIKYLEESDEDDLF
Method: The topoisomerase (Top) activity assay kit, including kinetoplast DNA (kDNA and recombinant human TopIIa enzyme, was obtained from TopoGen (Port Orange, FL, USA), agarose from PeqLab (Erlangen, Germany), 50 × TAE buffer from Roth (Karlsruhe, Germany) and ethidium bromide solution (10 mg/mL) from Sigma-Aldrich (Taufkirchen, Germany). Decatenation assays were performed as described previously[62] with slight modifications according to the manufacturer’s protocol. 100 µM of the recently described dual topoisomerase poison P8-D6 served as a positive control, and 5% DMSO as a solvent control. Briefly, the compounds were dissolved in DMSO and diluted to 20× the concentration to be tested. 1 µL of the resulting stock solutions were mixed with 18 µL of a buffer containing 200 ng kDNA and 1 mM ATP. Subsequently, 1 µL of a 1u/µL dilution of TopIIa enzyme was added and incubated at 37 °C for 30 min. Afterwards, the reaction was stopped by addition of Stop buffer, and electrophoresis was carried out on a 1% agarose gel in TAE buffer. The gel was stained with 0.5 µg/mL ethidium bromide, washed with water, and fluorescence images were captured with the LAS4000 system (Fujifilm, Duesseldorf, Germany). All steps were carried out on ice.

Structure (SMILES): C=CC1(C)C=C2C(=O)C3(OC(C)=O)OC(=O)C4(CCCC(C)(C)C34)C2(O)CC1 (stereo not drawn) [Compound 2]
IC50 [1]: 2.29 ± 0.13 µM
IC50 [2]: 2.68 ± 0.04 µM
IC50 [3]: 0.95 ± 0.02 µM
IC50 [4]: 3.76 ± 0.04 µM
IC50 [5]: 1.56 ± 0.16 µM
IC50 [6]: 2.25 ± 0.48 µM

IC50 [7]: 44.8 ± 0.54 µM
IC50 [8]: 59.3 ± 4.51 µM
IC50 [10]: 84.5 ± 8.29 µM
IC50 [12]: 41.7 ± 1.49 µM
IC50 [13]: 51.9 ± 7.19 µM
IC50 [19]: > 100 µM
IC50 [20]: > 100 µM
IC50 [22]: > 100 µM
inhibition at 500 µM [24]: ~50%
Structure (SMILES): C=C[C@]1(C)C=C2[C@@H](O)[C@@]3(O)OC(=O)[C@@]4(CCCC(C)(C)[C@H]34)[C@@]2(O)CC1 [Compound 15, sphaeropsidin B, reference compound]
IC50 [9]: 37.8 ± 1.5 µM
IC50 [11]: 43.1 ± 1.07 µM
IC50 [14]: > 100 µM
IC50 [15]: > 100 µM
IC50 [16]: > 100 µM
IC50 [17]: > 100 µM
IC50 [18]: > 100 µM
IC50 [21]: > 100 µM
IC50 [23]: > 100 µM
